What all share (test): NCI-60 cell line screen, 48 h
The subject of experiment [1] is SF-539 CNS.
Experiment [2] relates to UACC-62 melanoma.
The subject of experiment [3] is MALME-3M melanoma.
The test system of experiment [4] is A549 NSCLC.
In experiment [5] the test system is RXF 393 renal.
In experiment [6] the test system is ACHN renal.
Experiment [7] has as its system SK-MEL-2 melanoma.
For experiment [8], the system named is 786-0 renal.
Experiment [9] relates to NCI-H522 lung.
Experiment [10] concerns SK-OV-3 ovarian.

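Five concentrations, 48 hours, 96-well plates. At the GI50, growth is halved. Definition used: TGI = concentration required for complete inhibition of growth.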 Some results are limits rather than exact numbers.

For the molecule `O=c1c(Cl)c(Cl)cnn1CCc1ccncc1`, the TGI is 43.4 µM in experiment [1]; 39.8 µM in experiment [2]; 39.6 µM in [3]; above 100 µM in experiment [4]; 42.2 µM in experiment [5]; 33.4 µM in [6]. The TGI was determined as 39.7 µM in experiment [7] and 59.6 µM in experiment [8].

In the case of `c1ccc(Cn2cnc3ccc(-c4nc(-c5ccc6c(c5)ncn6C5CCCCC5)cn5ccnc45)cc32)cc1`, the GI50 in experiment [9] is 2.03 µM; in experiment [4], 2.33 µM; in [6], 3.08 µM; in experiment [7] it was 2.02 µM; in experiment [8], 0.799 µM. Further, the TGI in [9] was 5.09 µM; in experiment [4], 4.97 µM; in experiment [6], above 100 µM; in [7], 4.85 µM; in experiment [8] it was above 100 µM.

Regarding `CC(=O)N[C@H](C(=O)N[C@@H](CCCNC(=N)N)C(=O)N[C@@H](CCCCN)C(=O)N[C@@H](CCCNC(=N)N)C(=O)N[C@]1(C)CCCCCC/C=C\CCC[C@@](C)(C(=O)N[C@@H](CCCNC(=N)N)C(=O)N[C@@H](CCC(=O)O)C(=O)N[C@@H](CC(C)C)C(=O)N[C@H](C(=O)N[C@@H](CCC(=O)O)C(N)=O)C(C)C)NC(=O)[C@H](CCC(N)=O)NC(=O)[C@H](CC(C)C)NC(=O)[C@H](CC(C)C)NC(=O)[C@H](CCCNC(=N)N)NC(=O)[C@H](CCCNC(=N)N)NC(=O)[C@H](CC(C)C)NC1=O)C(C)C`, the GI50 is 1.97 µM in experiment [1]; 3.72 µM in experiment [10]; 1.19 µM in experiment [3]; 2.66 µM in [9]; 3.4 µM in [4]; 1.34 µM in experiment [5]. Further, the GI50 in experiment [6] was 8.06 µM; in experiment [7] it was 7.59 µM; in experiment [8], 1.24 µM. The TGI was 15.8 µM in experiment [1]; 27.7 µM in experiment [10]; 2.72 µM in [3]; above 50 µM in experiment [9]; 27.6 µM in experiment [4]; 4.77 µM in [5]. The TGI in [6] is 28.1 µM; in [7] it was above 50 µM; in [8], 2.91 µM.

`CC1(Cc2ccccc2)NC(=S)NC1=O` (stereo unspecified): the TGI in [1], in experiment [3], in experiment [9], in [4], in experiment [5] and in experiment [6] was above 100 µM each time. For the same molecule, the TGI in [7] and in experiment [8] was above 100 µM throughout.

In the case of `Cn1c2ccccc2c2c(=O)c3ccccc3[nH]c21`, the GI50 was 34 µM in experiment [1]; 69.7 µM in experiment [2]; above 100 µM in experiment [9]; 26.9 µM in [4]; 54 µM in [5]; 31.1 µM in experiment [6]. Moreover, the GI50 in experiment [7] was above 100 µM; in [8], 33.7 µM. For the same molecule, the TGI in [1], in experiment [2], in experiment [9], in experiment [4], in experiment [5] and in experiment [6] was above 100 µM each time. Besides, the TGI in experiment [7] and in experiment [8] was above 100 µM throughout.

In the case of `C#CCC(N)(CO)C(=O)O` (stereo unspecified), the TGI in experiment [1], in experiment [2], in experiment [10], in experiment [3], in experiment [9] and in experiment [4] was above 100 µM throughout. For the same molecule, the TGI in [6], in experiment [7] and in [8] was above 100 µM in each case.

As to `Cl[Si]1(Cl)Oc2ccccc2O[Si](Cl)(Cl)Oc2ccccc2O1`, the TGI in [1] is 97.9 µM; in [2] it was 20.9 µM; in experiment [10] it was above 100 µM; in [3], above 100 µM; in [9], 5.4 µM; in [4], above 100 µM. Also, the TGI in experiment [6] was above 100 µM; in [7] it was 73.8 µM; in experiment [8] it was 21.5 µM.

Consider `Cc1ccc(S(=O)(=O)N/N=C(\c2nc3ccc([N+](=O)[O-])cc3[nH]c2=O)C(O)c2ccccc2Cl)cc1` (stereo unspecified), for which the TGI in [1] is above 100 µM; in experiment [2], above 100 µM; in experiment [10] it was above 100 µM; in experiment [3], above 100 µM; in experiment [9], 82.6 µM; in experiment [4], above 100 µM. For the same molecule, the TGI in experiment [6], in [7] and in [8] was above 100 µM each time.

On to `C=CCOC(=O)CC[N+]1=CCC(c2ccccc2)(c2ccccc2)O1`, for which the TGI in experiment [1], in [2], in experiment [10], in [9], in [4] and in experiment [5] was above 100 µM in each case. Further, the TGI in experiment [6], in [7] and in experiment [8] was above 100 µM throughout.

Turning to `COc1cc2cnc3c4ccccc4ccc3c2cc1OC`, the TGI in experiment [2], in experiment [10], in experiment [3], in experiment [9], in [4] and in experiment [6] was above 100 µM each time. For the same molecule, the TGI in experiment [7] and in experiment [8] was above 100 µM each time.

Regarding `O=C1C=CC(=O)N1Nc1ccc([N+](=O)[O-])cc1[N+](=O)[O-]`, the TGI is above 100 µM in experiment [1]; above 100 µM in experiment [2]; above 100 µM in [10]; 31.1 µM in experiment [3]; above 58.9 µM in experiment [9]; above 100 µM in experiment [4]. For the same molecule, the TGI in experiment [6], in experiment [7] and in experiment [8] was above 100 µM each time.

For `Cc1c(C(=O)CSc2nc3ccccc3c(=O)n2-c2ccccc2)c(=O)n(-c2ccccc2)n1C`, the TGI in experiment [1] was above 100 µM; in experiment [10], 41.4 µM; in [3] it was above 100 µM; in experiment [9] it was 79.5 µM; in [4], above 100 µM; in [6], above 100 µM. Further, the TGI in [7] is above 100 µM; in [8], 38.9 µM.

The record behind these values is PubChem BioAssay (NCI).
